{"source": "patent US20230100173A1", "about": "“A TOPICAL COMPOSITION COMPRISING AN EXTRACT OF COMBINED HERBS […] ARILLUS FOR TLSP INHIBITION AND THE TREATMENT OR A[…] SKIN INFLAMMATORY DISEASE AND THE USE THEREOF” (ME[…]., LTD, priority 2020, published 2023)", "key": {"TSLP [1]": {"system": "TSLP", "assay": "TSLP expression in dorsal skin of DNFB mice (RT-PCR)", "format": "in vivo, mouse", "conditions": "16th day, WIN-1001X 10 mg/ml, DEX 200 μM, DNFB+DIW 7.51", "experimental": "(§1) 100 μL of 0.15% (w/v) DNFB (2,4-dinitrofluorobenzene, D1529, Sigma-Aldrich Co. Ltd.) was spread on […] of 6 weeks-old BALB/C female mouse (DBL Co., Ltd. Incheon, Korea) and after removing the central dorsal hair, 100 μL of 0.15% (w/v) DNFB (2,4-dinitrofluorobenzene, D1529, Sigma-Aldrich Co. Ltd.) was spread at every third day starting from at 7th day to 16th day to induce skin inflammation.\nIn order to determine the anti-inflammatory activity of inventive extract, following inhibition test of TSLP cytokine expression using test animal was performed according to the procedure disclosed in the literature (Li et al., Drug. Des. Devel. Ther., 2016, Feb. 19; 10:781-191).\n(§2) At 16th day after the treatment of DNFB, RNA (FATRR-001, Favorgan) was extracted from the dorsal skin of mice prepared in Experimental Example 2 and cDNA was synthesized from the RNA using by cDNA synthesis kit (RRO36A, TAKARA). The polymerization reaction was performed using by the synthesized cDNA and Sybrgreen kit (RT500M, Enzynomics) and then Real-time-PCR was performed using by primers for TSLP cytokines involved in skin inflammation as disclosed in Table 7."}, "TSLP [2]": {"system": "TSLP", "assay": "Inhibition of TNF alpha-induced TSLP expression in HaCaT cells (RT-PCR)", "format": "cell-based, human", "conditions": "TNFα 50 ng/ml, extract 1 μg/ml, Dex 200 nM, mean", "experimental": "(§3) In order to determine the anti-inflammatory activity of inventive extract, following inhibition test of cytokine expression using HaCaT cell was performed according to the procedure disclosed in the literature (Jeong et al., 2019, J. Invest. Dermatol., May; 139 (5): pp 1098-1109).\n(§4) HaCaT cell (human epithelial keratinocyte cell, 300493, CLS) was inoculated into DMEM medium containing 10% Fetal bovine serum, 100 units/m1 of penicillin, 100n/m1 of streptomycin (D6429, Sigma-Aldrich Co. Ltd) and was incubated in the incubator (HERA cell 150i, Thermo Fisher Scientific Co. Ltd.) maintaining optimum humidity (85-95%) and 5% CO2 atmosphere.\n(§5) For performing gene expression test, the incubated cells were transferred to 12 wells and 50 ng/ml of TNF alpha (RC214-12, Biobasic Co. Ltd) was treated therewith for 1 hour to induce inflammatory response.\n(§6) 1 hour after inducing the inflammation, 1 μg/ml of inventive extract prepared in Examples was treated with identical medium and subjected to incubation for 1 hour. After the incubation, RNA (FATRR-001, Favorgen) was extracted from the cell and cDNA was synthesized from the RNA using by cDNA synthesis kit (RRO36A, TAKARA). […]"}, "IL-33": {"system": "IL-33", "assay": "IL-33 expression in dorsal skin of DNFB mice (RT-PCR)", "format": "in vivo, mouse", "conditions": "16th day, WIN-1001X 10 mg/ml, DEX 200 μM, DNFB+DIW 9.47", "experimental": "as §1\n(§7) In order to determine the anti-inflammatory activity of inventive extract, following inhibition test of cytokine expression using test animal was performed according to the procedure disclosed in the literature (Li et al., Drug. Des. Devel. Ther., 2016, Feb. 19; 10:781-191).\nas §2, with “various” for “TSLP”, “inflammation (GADPH, TSLP, GM-CSF, IL-4, IL-10, IL-13, IL-31 and IL-33)” for “inflammation”"}, "skin epidermal layer": {"system": "skin epidermal layer", "format": "in vivo, mouse", "conditions": "DNFB BALB/C mice, 16th day, H&E; topical WIN-1001X 10 mg/ml, DEX 200 μM; acetone+DIW = 1, DNFB+DIW 7.06", "protocol": "(§8) Ltd.) was spread at every third day starting from at 7th day to 16th day to induce skin inflammation. […] Additionally, the histological analysis on skin tissue of test animal has been performed. Specifically, the dorsal skin tissue occurring dermatitis was fixed on 4% (w/v) paraformaldehyde solution ([MUT], Sigma-Aldrich) in shaker maintaining 4° C. (CR300, […] ) at 16th day after the sample treatment and 12 hours after the fixation, the dehydrated and transparent tissue was embedded in paraffin, sliced (5 μm of width) to make tissue slices."}, "IL-13": {"system": "IL-13", "assay": "IL-13 expression in dorsal skin of DNFB mice (RT-PCR)", "format": "in vivo, mouse", "conditions": "16th day, WIN-1001X 10 mg/ml, DEX 200 μM, DNFB+DIW 48.6", "experimental": "as §1, §7\nas §2, with “various” for “TSLP”, “inflammation (GADPH, TSLP, GM-CSF, IL-4, IL-10, IL-13, IL-31 and IL-33)” for “inflammation”"}, "IL-10": {"system": "IL-10", "assay": "IL-10 expression in dorsal skin of DNFB mice (RT-PCR)", "format": "in vivo, mouse", "conditions": "16th day, WIN-1001X 10 mg/ml, DEX 200 μM, DNFB+DIW 19.3", "experimental": "as §1, §7\nas §2, with “various” for “TSLP”, “inflammation (GADPH, TSLP, GM-CSF, IL-4, IL-10, IL-13, IL-31 and IL-33)” for “inflammation”"}, "IL-22": {"system": "IL-22", "assay": "IL-22 expression in dorsal skin of DNFB mice (RT-PCR)", "format": "in vivo, mouse", "conditions": "16th day, WIN-1001X 10 mg/ml, DEX 200 μM, DNFB+DIW 29.2"}, "[3]": {"system": "DNFB-induced skin dermatitis, BALB/C female mouse", "assay": "DNFB-induced atopic dermatitis in BALB/C mice, skin dermatitis severity score", "format": "in vivo", "conditions": "16th day, topical WIN-1001X 10 mg/ml, DEX 200 μM, DNFB+DIW 8.8", "experimental": "To confirm the inhibitory effect of inventive extract on the atopic dermatitis, the animal model test using by mice, was performed according to the method disclosed in the reference (Li et al., Drug. Des. Devel. Ther., 2016, Feb. 19; 10:781-191).\nas §1\nFor the purpose of comparing with test group, the identical test excepting using acetone instead of DNFB and DIW instead of test sample with the above procedure was performed."}, "[4]": {"system": "mast cells infiltrated into inflamed lesion", "format": "in vivo, mouse", "conditions": "DNFB BALB/C mice, 16th day, toluidine blue; topical WIN-1001X 10 mg/ml, DEX 200 μM; acetone+DIW = 1, DNFB+DIW 3.18", "protocol": "as §8"}, "IL-1β": {"system": "IL-1β", "assay": "Inhibition of TNF alpha-induced IL-1β expression in HaCaT cells (RT-PCR)", "format": "cell-based, human", "conditions": "TNFα 50 ng/ml, extract 1 μg/ml, Dex 200 nM, mean", "experimental": "as §3, §4, §5, §6"}, "IL-4": {"system": "IL-4", "assay": "IL-4 expression in dorsal skin of DNFB mice (RT-PCR)", "format": "in vivo, mouse", "conditions": "16th day, WIN-1001X 10 mg/ml, DEX 200 μM, DNFB+DIW 11.4", "experimental": "as §1, §7\nas §2, with “various” for “TSLP”, “inflammation (GADPH, TSLP, GM-CSF, IL-4, IL-10, IL-13, IL-31 and IL-33)” for “inflammation”"}, "IL-31": {"system": "IL-31", "assay": "IL-31 expression in dorsal skin of DNFB mice (RT-PCR)", "format": "in vivo, mouse", "conditions": "16th day, WIN-1001X 10 mg/ml, DEX 200 μM, DNFB+DIW 3.93", "experimental": "as §1, §7\nas §2, with “various” for “TSLP”, “inflammation (GADPH, TSLP, GM-CSF, IL-4, IL-10, IL-13, IL-31 and IL-33)” for “inflammation”"}}, "data": [{"smiles": "C[C@@H]1C[C@H]2[C@@H]3CCC4=CC(=O)C=C[C@]4(C)[C@@]3(F)[C@@H](O)C[C@]2(C)[C@@]1(O)C(=O)CO", "note": "[DEX, Dexamethasone]", "values": [{"measurement": "TSLP expression (RT-PCR, relative to acetone+DIW = 1)", "setting": "TSLP [1]", "value": 1.311}, {"measurement": "TSLP expression (RT-PCR, relative to untreated = 1)", "setting": "TSLP [2]", "value": 52.49}, {"measurement": "IL-33 expression (RT-PCR, relative to acetone+DIW = 1)", "setting": "IL-33", "value": 0.7365}, {"measurement": "relative area of epidermis", "setting": "skin epidermal layer", "value": 1.638, "unit": "fold"}, {"measurement": "IL-13 expression (RT-PCR, relative to acetone+DIW = 1)", "setting": "IL-13", "value": 12.56}, {"measurement": "IL-10 expression (RT-PCR, relative to acetone+DIW = 1)", "setting": "IL-10", "value": 20.44}, {"measurement": "IL-22 expression (RT-PCR, relative to acetone+DIW = 1)", "setting": "IL-22", "value": 13.08}, {"measurement": "Improving effect on skin dermatitis (severity score, total score 12)", "setting": "[3]", "value": 2.2}, {"measurement": "relative number of mast cells", "setting": "[4]", "value": 0.8548, "unit": "fold"}, {"measurement": "IL-1β expression (RT-PCR, relative to untreated = 1)", "setting": "IL-1β", "value": 1.081}, {"measurement": "IL-4 expression (RT-PCR, relative to acetone+DIW = 1)", "setting": "IL-4", "value": 4.798}, {"measurement": "IL-31 expression (RT-PCR, relative to acetone+DIW = 1)", "setting": "IL-31", "value": 1.001}]}]}
